Laboratory results from patent US20240376069A1, “COMPOUNDS AND METHODS FOR LABELING LIPIDATED NUCLEOTIDES” (The Research Foundation for The State University of New York, priority 2023, published 2024).

Key:
[1] = tested on: HEK293T cells; assay: In-cell fluorescent labelling of SelU-mediated tRNA geranylation, confocal imaging; assay type: cell-based
Protocol: The HEK293T cells were washed twice with PBS, and trypsin was added for 1 min. Then 2.0 mL DMEM medium was added to the mixed well, followed by centrifuged at 1,000 r.p.m for 5 min, and the supernatant was discarded. Fresh medium was added to resuspend the cell pellet and cells were seeded in a confocal dish at the density of 0.5×1 05, the cells were gently mixed using pipette, and then placed in CO2 incubator. 150 mM sterile NaCl solution was prepared as a diluent for DNA and Vigofect (Vigorous Biotechnology Beijing Co., Ltd.). The culture medium in the confocal dish was then replaced with fresh complete culture medium before transfection, and the culture was incubated at 37° C. under 5% CO2 atmosphere. […] Configure the transfection working solution. […] Next, 2.5 μl VigoFect was added to the diluent (total 100 μl), and the solution was mixed gently and placed at room temperature for 5 min. Next, the diluted VigoFect was added into the diluted DNA solution gently, and the resulting transfection working solution was incubated at room temperature for 15 min. Subsequently, the working solution was added to the cell culture, mixed gently and incubated for 24 h. […] Cells were washed with PBS 3 times and then fixed with 4% paraformaldehyde for 15 min, and subsequently permeabilized with 0.5% Triton X-100 for 15 min. […]

[2] = target: SelU (Escherichia coli, UniProt P33667); assay type: biochemical, E. coli; conditions: for modified RNA residues after click reaction and RNase cleavage (recognition by SelU): HPLC and MS-spec data
[3] = tested on: prenylated tRNA; assay: Direct fluorescent labelling of prenylated tRNA by Ene-ligation, in-gel fluorescence; conditions: 10 μM probe; total RNAs isolated from E. coli
Protocol: tRNA (1.0 mg) isolated from E. coli using Zymo purification kit strictly following the instruction protocol was dissolved in PBS buffer (0.1 M, pH=7.4) and the PTAD-DBCO-Cy5 probe (1.0 mM) generated by in-situ oxidation with N-bromosuccinimide (NBS, 1 M in DMF) was added in one portion at 4° C. The mixture was incubated at 4° C. for 15 min in a sterile tube. And excess fluorescent probe was removed by 3K filter (Millipore) and the resulting nucleic acid was analyzed by in-gel fluorescence (Scheme S8).

[4] = Dynamic investigation of the Ene-ligation of i^6A with PTAD by proton NMR; assay type: physicochemical; conditions: i^6A 30 mM, PTAD 0.15 mmol, CD3CN/D2O (v/v, 1/1), room temperature, within 5 minutes
Protocol: Nucleoside i^6A (4, 10 mg, 0.03 mmol) were dissolved in CD3CN/D2O (1.0 mL, v/v=1:1, final concentration=30 mM). PTAD (5, 26 mg, 0.15 mmol) was then added to the solution (final concentration=150 mM), and the reaction mixture was allowed to stand at room temperature. The ^1H NMR spectra were recorded by proton NMR (400 MHz).
The nucleoside i^6A (10 mg, 0.03 mmol) was dissolved in a mixture of CD3CN and D2O (0.5 mL, volume-to-volume ratio of 4:1, resulting in a final concentration of 60 mM). Subsequently, 4-phenyl-3H-1,2,4-triazole-3,5(4H)-dione (PTAD, 26 mg, 0.15 mmol, equivalent to 5 times the amount of i^6A) was added to the solution (resulting in a final concentration of 300 mM). The reaction mixture was then allowed to stand at room temperature. The ^1H NMR spectra were obtained using a 400 MHz ^1H NMR instrument with CD3CN/D2O as the solvent.

[5] = tested on: HeLa cells; assay: Incorporation of i^6A into total RNA of eukaryotic cells, detected with PTAD-DBCO-FITC (8); assay type: cell-based
Protocol: Next, we will further test whether i^6A (4) can participate in the RNA transcription process in eukaryotic cells. First culture the HeLa cells in a six-well plate to 70%-80%. […] After 12 hours of culture, collect all cells and extract total RNA.
To the 1.5 mL Eppendorf tube containing PTAD-DBCO-FITC precursor (7, 10 μL, 10 mM solution in DMF) was added N-bromo succinimide (1.0 μL, 100 mM in DMF). The mixture was vortexed gently and formation of the light-red color was observed. The reagent was kept on ice and used for the i^6A-incorporated RNA labelling immediately. Labeling protocol is the same stated above.
HeLa cells was obtained from ATCC. HeLa cells were cultured in DMED medium with 10% fetal calf serum. Cells were maintained in a humidified incubator at 5% CO2 and 37° C. To label RNA in vivo, HeLa cells were cultured in 6-well plates to 70%-80%. […] Then it will be detected by agarose gel electrophoresis. […]
The i^6A-incorporated total RNA ([…], 20 ng/mL in DEPC water) was incubated with PTAD-DBCO-FITC ([…] of a 0.1 mM solution), shaken for 30 minutes at 0° C. The RNA was then analyzed through gel electrophoresis on a 1% agarose gel. […] Gels were analyzed by in-gel fluorescence measurements on a FluorChem® FC3 imager (Alpha Innotech). Fluorescence was measured with a blue light excitation wavelength (475 nm) and a green filter emission (537 nm).

[6] = Iodine-mediated cyclisation of nucleoside i^6A; assay type: physicochemical; conditions: optimized concentration of iodine reagent
Protocol: Model reactions of i^6A nucleoside (4). The model reactions were carried out in DMSO-d6 in order to facilitate in situ NMR characterization without further purification. i^6A (4, 0.15 mmol) was dissolved in DMSO-d6 (0.5 mL), and iodine (0.45 mmol) was added. The mixture was stirred at 37° C. for 5 minutes and was taken out for ^1H NMR.
The reactions were conducted in DMSO-d^6 to enable in situ NMR characterization without the need for additional purification. i^6A (4, 0.15 mmol) was dissolved in DMSO-d^6 (0.5 mL), and iodine (0.45 mmol in DMSO-d^6) was subsequently added to the solution. The mixture was then stirred at 37° C. for 5 minutes. After this incubation period, the reaction mixture was subjected to ^1H NMR, ^13C NMR, HPLC, UV and LC-MS analysis.

[7] = tested on: HeLa cells; assay: Cytotoxic assays of i^6A (4) towards HeLa cells; assay type: cell-based
From the text: In order to better detect the involvement of i^6A (4) in the transcription process of cellular RNA, we also tested the effect of i^6A (4) on cytotoxicity and optimized the concentration of i^6A (4) to treat cells.

[8] = target: T7 RNA polymerase (Escherichia phage T7, UniProt P00573)
T7 RNA polymerase, sequence (P00573 whole entry): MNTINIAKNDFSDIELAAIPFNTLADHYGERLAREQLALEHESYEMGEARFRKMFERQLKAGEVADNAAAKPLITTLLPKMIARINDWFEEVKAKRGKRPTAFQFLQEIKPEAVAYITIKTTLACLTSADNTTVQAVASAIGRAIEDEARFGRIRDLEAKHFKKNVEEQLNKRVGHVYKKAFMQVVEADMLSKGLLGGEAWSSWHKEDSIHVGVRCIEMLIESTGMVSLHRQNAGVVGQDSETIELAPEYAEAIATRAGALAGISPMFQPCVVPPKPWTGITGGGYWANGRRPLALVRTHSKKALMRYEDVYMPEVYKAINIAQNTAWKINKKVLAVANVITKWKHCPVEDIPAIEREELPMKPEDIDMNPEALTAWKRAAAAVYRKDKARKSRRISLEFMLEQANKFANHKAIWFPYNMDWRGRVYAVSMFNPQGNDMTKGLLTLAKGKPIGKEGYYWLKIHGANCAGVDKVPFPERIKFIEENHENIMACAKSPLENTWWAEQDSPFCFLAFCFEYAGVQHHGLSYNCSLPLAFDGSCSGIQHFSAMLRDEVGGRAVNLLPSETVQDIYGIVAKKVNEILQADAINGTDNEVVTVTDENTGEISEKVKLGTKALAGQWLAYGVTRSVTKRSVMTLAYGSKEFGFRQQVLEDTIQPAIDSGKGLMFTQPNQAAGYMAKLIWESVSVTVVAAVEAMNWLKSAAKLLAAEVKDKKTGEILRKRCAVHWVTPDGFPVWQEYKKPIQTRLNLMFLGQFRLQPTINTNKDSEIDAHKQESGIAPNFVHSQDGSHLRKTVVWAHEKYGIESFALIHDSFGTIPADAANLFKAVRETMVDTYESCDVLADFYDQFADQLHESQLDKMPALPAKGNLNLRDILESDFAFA
Protocol: Using the T7P-EGFP constructed above as a template and rNTP as substrates, the reaction was carried out at 37° C. for 2 hours which was catalyzed by T7 RNA polymerase. After the reaction, the template DNA T7P-EGFP was degraded with DNase I. Finally, the RNA was precipitated and purified, and the transcription effect of the RNA was detected by agarose gel electrophoresis. The T7P-EGFP template sequence and HeLa genomic RNA were used as the control group.
EGFP-RNA was transcript with T7 transcription kit (Takara) in vitro. The system was kept at 37° C. for 2 hours. 1-4 extended to 6 hours. Then the templets were digested with DNase 1, 37° C. for 30 minutes. […] RNA concentration was determined with a Nanodrop One microvolume UV-Vis. spectrophotometer.

SelU, sequence (P33667 whole entry): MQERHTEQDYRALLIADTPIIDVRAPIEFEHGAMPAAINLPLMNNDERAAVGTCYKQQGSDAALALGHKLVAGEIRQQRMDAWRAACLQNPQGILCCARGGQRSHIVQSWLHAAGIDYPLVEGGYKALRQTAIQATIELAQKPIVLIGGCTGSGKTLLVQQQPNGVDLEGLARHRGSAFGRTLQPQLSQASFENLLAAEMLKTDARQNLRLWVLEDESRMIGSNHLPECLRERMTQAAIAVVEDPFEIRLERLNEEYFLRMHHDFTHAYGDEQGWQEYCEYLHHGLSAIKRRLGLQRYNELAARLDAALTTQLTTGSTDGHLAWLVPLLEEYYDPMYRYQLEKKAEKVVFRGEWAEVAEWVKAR

For `CC(C)=CCC/C(C)=C/COP(=O)(O)OP(=O)(O)O` [Ge1, (E)-3,7-dimethylocta-2,6-dien-1-yldiphosphate Tetrabutylammonium Trimer, reference compound], the “red fluorescence of geranylated tRNA in cells, direct labelling” value ([1]; transfected SelU and 5s (tRNA^Lys), probe PTAD-DBCO-Cy5) was “clearly showed the red fluorescence”.
With `CC(C)=CCCC(C)CCOP(=O)(O)OP(=O)(O)O` (centres unmarked) [Ge2, 3,7-dimethyloct-6-en-1-yl pyrophosphate] the “modified RNA residues after click reaction and RNase cleavage (recognition by SelU)” value [2] was “no modified RNA residues”.
In the case of `CC(C)=CCCOP(=O)(O)OP(=O)(O)O` [Ge3, 4-methylpent-3-en-1-yl Diphosphate Tetrabutyl Ammonium Trimer], the “modified RNA residues after click reaction and RNase cleavage (recognition by SelU)” value [2] is reported as “no modified RNA residues”.
With `C/C(=C\COP(=O)(O)OP(=O)(O)O)CC/C=C(\C)CN=[N+]=[N-]` [Ge5] the “fluorescent labelling of tRNA^Gln, Glu, Lys after SelU-mediated transfer of the ligand” value [2] was “efficient fluorescent signal of tRNA was observed” and the “red fluorescence in cells, two-step ACT-Flu approach” value ([1]; SelU co-transfected, probe DBCO-Cy5) was “strong red florescence”.
In the case of `C/C(=C\COP(=O)(O)OP(=O)(O)O)CC/C=C(\C)COC(=O)CCC(=O)N1Cc2ccccc2C#Cc2ccccc21` [Ge7], the “fluorescent labelling of tRNA^Gln, Glu, Lys after SelU-mediated transfer of the ligand” value [2] is reported as “failed”.
In the case of `CN1/C(=C/C=C/C=C/C2=[N+](CCCCCC(=O)NCCC(=O)N3Cc4ccccc4-c4c(nnn4CCOc4ccc(N5C(=O)N=NC5=O)cc4)-c4ccccc43)c3ccccc3C2(C)C)C(C)(C)c2ccccc21.[Cl-]` [PTAD-DBCO-Cy5], the “fluorescent signal of total RNAs treated with the probe” value [3] is reported as “a red fluorescent signal was observed”.
In the case of `CC(C)=CCNc1ncnc2c1ncn2[C@@H]1O[C@H](CO)[C@@H](O)[C@H]1O` [i^6A (4), N^6-(3-methylbut-2-enyl)-adenosine], the “conversion yield in reaction with PTAD” value [4] is reported as “approximately 50%”, the “fluorescence signal of total RNA after PTAD-DBCO-FITC (8) staining” value ([5]; cells cultured in the presence of i^6A, none in control group) is reported as “significant fluorescence signal was detected” and the “fluorescence signal of total RNA after PTAD-DBCO-FITC (8) staining” value ([5]; i^6A 800 μM) is reported as “weaker RNA fluorescence signal”. The “time to full conversion with iodine” value [6] was “less than 5 minutes”, the cytotoxic concentration ([7]; HeLa cells) was 800 µM and the “effect on cell viability” value ([7]; concentration 800 μM) was “cell viability will be significantly inhibited”. The effect on cells ([7]; concentration 2.0 mM) was “significant inhibitory effect on cells” and the “effect on cell viability” value ([7]; concentration within 400 μM) was “little effect on cell viability”.
In the case of `CC(C)=CCNc1ncnc2c1ncn2C1OC(COP(=O)(O)OP(=O)(O)OP(=O)(O)O)C(O)C1O` (centres unmarked) [i^6ATP], the “recognition efficiency of T7 RNA polymerase” value ([8]; compared with K4, preliminary experiments) is reported as “significantly higher than that of K4” and the “recognition efficiency by T7 RNA polymerase” value ([8]; compared with rATP) is reported as “low comparing with rATP”.
